Converted amounts (≈) assume the structure as drawn. “And” between values parts separate entries of the source, which are not always exact repeats. Equal values may be shown once. Read-outs that look alike come from different tables or passages of the source.
How the values were obtained:
Format in all cases: cell-based
[1] = tested on: HaCaT cell line (human keratinocyte); assay: MTT cell viability assay; settings: MTT assay, 72 h incubation, mean ± SD, read-out: IC50 HaCaT
MCF-7 (breast cancer) = assay: MTT cell viability assay; settings: Homo sapiens, MCF7, 72 h incubation, mean ± SD
Method: (§1) Analysis was performed using the MTT test and 72 h of incubation.
(§2) All chemicals were obtained from Sigma-Aldrich (St. Louis, MO, USA). The MCF-7 and HeLa cell lines were purchased from Cell Lines Services (Eppelheim, Germany), the HCT-116 cell line was purchased from ATCC (ATCC-No: CCL-247). Cells were cultured in Dulbecco’s modified Eagle’s medium (DMEM) supplemented with 10% fetal bovine serum, 2 mM glutamine, 100 units/mL penicillin, and 100 μg/mL streptomycin. Cultures were held in an incubator (Heraceus, HeraCell) in a humidified atmosphere with 5% CO2 at 37 °C.
(§3) Cell viability was evaluated using the MTT (3-(4,5-dimethylthiazol-2-yl)-2,5-diphenyltetrazolium bromide) assay. Stock solutions of the studied compounds were obtained in 100% DMSO. […] Cells at a density of 5 × 10^3 cells/well, seeded in 96-well plates, were treated for 72 h with the tested compounds in the concentration range 1–100 μM (1, 10, 25, 50 and 100 μM). After treatment, cells were incubated for 2 h with MTT (0.5 mg/mL) at 37 °C. Cells were lysed with DMSO and the absorbance of the formazan solution was measured at 550 nm with a plate reader (1420 multilabel counter, Victor, Jügesheim, Germany). Values are expressed as the mean ± SD of at least three independent experiments conducted in triplicate.

HCT-116 (colon cancer) = assay: MTT cell viability assay; settings: Homo sapiens, 72 h incubation, mean ± SD
Method: as §1, §2, §3

HeLa (cervical cancer) = assay: MTT cell viability assay; settings: Homo sapiens, 72 h incubation, mean ± SD
Method: as §1, §2, §3

[2] = tested on: Candida albicans ATCC 10231; assay: Broth dilution MIC/MFC, reference fungal strain; settings: for MFC/MIC: C. a. ATCC 10231; for MFC / MIC: Candida albicans, ATCC10231, C. albicans ATCC 10231; for MFC: read-out: MFC; for MIC: read-out: MIC
Method: (§4) The tests were carried out using a serial dilution method, allowing the determination of MIC (minimal concentration inhibiting bacterial growth), MBC (minimal bactericidal concentration), and MFC (minimal fungicidal concentration) values.
(§5) Antimicrobial activity was tested using the following reference strains: Staphylococcus aureus ATCC 6538 (MSSA), Staphylococcus aureus ATCC 43300 (MRSA), Staphylococcus epidermidis PCM 2118, Escherichia coli ATCC 11229, Pseudomonas aeruginosa ATCC 15442, Proteus vulgaris NCTC 4635, Enterococcus faecalis ATCC 11420, and Candida albicans ATCC 10231.
(§6) A broth dilution method was used to determine minimal inhibitory concentration (MIC) for tested compounds as recommended by Clinical Laboratory Standards Institute (CLSI) guidelines. Investigated compounds were diluted in Mueller Hinton Broth 2 (Sigma-Aldrich Co., St. Louis, MO, USA) in polypropylene 96-well plates and initial inoculum 5 × 10^5 cfu/mL were incubated at 37 °C for 18 h. MIC was taken as the lowest drug concentration at which an observable growth was inhibited. […] The loopful (10 µL) of the tested sample was transferred to Tryptic Soy Agar (TSA, Becton-Dickinson, Franklin Lakes, NJ, USA) and incubated at 37 °C for 48 h. […] Drug Solutions were made fresh on the day of the assay. All experiments were performed in triplicate.

[3] = tested on: Escherichia coli ATCC 11229; assay: Broth dilution MIC/MBC, reference strain; settings: for MBC/MIC: E. c. ATCC 11229; for MBC / MIC: Escherichia coli, ATCC11229, E. coli ATCC 11229; for MBC: read-out: MBC; for MIC: read-out: MIC
Method: as §4, §5, §6

[4] = tested on: Enterococcus faecalis ATCC 11420; assay: Broth dilution MIC/MBC, reference strain; settings: for MBC/MIC: E. f. ATCC 11420; for MBC / MIC: Enterococcus faecalis, ATCC11420, E. faecalis ATCC 11420; for MBC: read-out: MBC; for MIC: read-out: MIC
Method: as §4, §5, §6

[5] = tested on: Staphylococcus aureus ATCC 6538 (MSSA); assay: Broth dilution MIC/MBC, reference strain; settings: for MBC/MIC: S. a. ATCC 6538; for MBC / MIC: Staphylococcus aureus, S. aureus ATCC 6538; for MBC: read-out: MBC; for MIC: read-out: MIC
Method: as §4, §5, §6

[6] = tested on: Staphylococcus epidermidis PCM 2118; assay: Broth dilution MIC/MBC, reference strain; settings: for MBC/MIC: S. e. PCM 2118; for MIC: read-out: MIC
Method: as §4, §5, §6

[7] = tested on: Staphylococcus aureus ATCC 43300 (MRSA); assay: Broth dilution MIC/MBC, reference strain; settings: for MBC/MIC: S. a. ATCC 43300; for MBC / MIC: Staphylococcus aureus, S. aureus ATCC 43300; for MBC: read-out: MBC; for MIC: read-out: MIC
Method: as §4, §5, §6

[8] = tested on: Pseudomonas aeruginosa ATCC 15442; assay: Broth dilution MIC/MBC, reference strain; settings: for MBC/MIC: P. a. ATCC 15442; for MBC / MIC: Pseudomonas aeruginosa, ATCC15442, P. aeruginosa ATCC 15442; for MBC: read-out: MBC; for MIC: read-out: MIC
Method: as §4, §5, §6

[9] = tested on: Proteus vulgaris NCTC 4635; assay: Broth dilution MIC/MBC, reference strain; settings: for MBC/MIC: P. v. NCTC 4635; for MBC / MIC: Proteus vulgaris, NCTC4635, P. vulgaris NCTC 4635; for MBC: read-out: MBC; for MIC: read-out: MIC
Method: as §4, §5, §6

[10] = Staphylococcus epidermidis, PCM2118, S. epidermidis PCM 2118
[11] = Staphylococcus epidermidis, PCM2118, S. epidermidis PCM 2118, read-out: MBC

| Structure (SMILES) | IC50 (MCF-7 (breast cancer)) [µM] | IC50 (HCT-116 (colon cancer)) [µM] | IC50 (HeLa (cervical cancer)) [µM] | MFC/MIC [2] | MIC [2] [µg/mL] | MBC/MIC [3] | MIC [3] [µg/mL] | MBC/MIC [4] | MIC [4] [µg/mL] | MBC/MIC [5] | MIC [5] [µg/mL] | MBC/MIC [6] | MIC [6, 10] [µg/mL] | MBC/MIC [7] | IC50 [1] | MFC [2] [µg/mL] | MBC [3] [µg/mL] | MBC [4] [µg/mL] | MBC [5] [µg/mL] | MBC [7] [µg/mL] | further results |
| --- | --- | --- | --- | --- | --- | --- | --- | --- | --- | --- | --- | --- | --- | --- | --- | --- | --- | --- | --- | --- | --- |
| Cc1cc(S(=O)(=O)NC(=O)C=Cc2ccccc2)c(SCc2ccc(C(F)(F)F)cc2)cc1Cl [Compound 14, N-[4-Chloro-5-methyl-2-(4-trifluoromethylbenzylthio)benzenesulfonyl]cinnamamide] | 73 ± 1 | 81 ± 1 | 96 ± 5 | 2 | 64 (≈ 122 µM) | 1 | 128 (≈ 243 µM) | >8 | 16 (≈ 30.4 µM) | 16 | 8 (≈ 15.2 µM) | 2 | 8 (≈ 15.2 µM) | 16 | 147 µg/mL and 280 µM | 128 (≈ 243 µM) | 128 (≈ 243 µM) | > 128 | 128 (≈ 243 µM) | 128 (≈ 243 µM) | MIC [7]: 8 µg/mL (≈ 15.2 µM); MBC/MIC [8]: 2; MBC [8]: 128 µg/mL (≈ 243 µM); MIC [8]: 64 µg/mL (≈ 122 µM); MBC/MIC [9]: >1; MBC [9]: > 128 µg/mL; MIC [9]: 128 µg/mL (≈ 243 µM) |
| Cc1cc(S(=O)(=O)NC(=O)C=Cc2ccccc2)c(SCc2cccc(C(F)(F)F)c2)cc1Cl [Compound 15, N-[4-Chloro-5-methyl-2-(3-trifluoromethylbenzylthio)benzenesulfonyl]cinnamamide] | 93 ± 3 | 86 ± 2 | 165 ± 9 | 2 | 64 (≈ 122 µM) | 1 | 128 (≈ 243 µM) | >8 | 16 (≈ 30.4 µM) | 16 | 8 (≈ 15.2 µM) | 1 | 8 (≈ 15.2 µM) | 16 | 79 µg/mL and 150 µM | 128 (≈ 243 µM) | 128 (≈ 243 µM) | > 128 | 128 (≈ 243 µM) | 128 (≈ 243 µM) | MBC ([6]; S. epidermidis PCM 2118): 8 µg/mL (≈ 15.2 µM); MBC [6, 11]: 4 to 16 µg/mL (≈ 7.6 to 30.4 µM); MIC [7]: 8 µg/mL (≈ 15.2 µM); MBC/MIC [8]: 2; MBC [8]: 128 µg/mL (≈ 243 µM); MIC [8]: 64 µg/mL (≈ 122 µM); MBC/MIC [9]: >2; MBC [9]: > 128 µg/mL; MIC [9]: 64 µg/mL (≈ 122 µM) |
| Cc1cc(S(=O)(=O)NC(=O)CCC2CCCCC2)c(SCc2ccc3ccccc3c2)cc1Cl [Compound 12, N-[4-Chloro-5-methyl-2-(naphthalen-2-ylmethylthio)benzenesulfonyl]-3-cyclohexylpropanamide] | 94 ± 3 | 77 ± 3 | 88 ± 3 | 2 | 64 (≈ 124 µM) | >1 | 128 (≈ 248 µM) | >4 | 32 (≈ 62 µM) | 16 | 8 (≈ 15.5 µM) | 32 | 4 (≈ 7.75 µM) | >16 | 47 µg/mL and 92 µM | 128 (≈ 248 µM) | > 128 | > 128 | 128 (≈ 248 µM) | > 128 | MBC [6, 11]: 128 µg/mL (≈ 248 µM); MIC [7]: 8 µg/mL (≈ 15.5 µM); MBC/MIC [8]: 1; MBC [8]: 128 µg/mL (≈ 248 µM); MIC [8]: 128 µg/mL (≈ 248 µM); MBC/MIC [9]: >1; MBC [9]: > 128 µg/mL; MIC [9]: 128 µg/mL (≈ 248 µM) |

The remaining compounds from weak to strong by IC50 (MCF-7 (breast cancer)), led by results:

| IC50 (MCF-7 (breast cancer)) [µM] | IC50 (HCT-116 (colon cancer)) [µM] | IC50 (HeLa (cervical cancer)) [µM] | MFC/MIC [2] | MIC [2] [µg/mL] | MBC/MIC [3] | MIC [3] [µg/mL] | MBC/MIC [4] | MIC [4] [µg/mL] | MBC/MIC [5] | MIC [5] [µg/mL] | MBC/MIC [6] | MIC [6, 10] [µg/mL] | MBC/MIC [7] | Structure (SMILES) | IC50 [1] | MFC [2] [µg/mL] | MBC [3] [µg/mL] | MBC [4] [µg/mL] | MBC [5] [µg/mL] | MBC [7] [µg/mL] | further results |
| --- | --- | --- | --- | --- | --- | --- | --- | --- | --- | --- | --- | --- | --- | --- | --- | --- | --- | --- | --- | --- | --- |
| 82 ± 4 | 66 ± 1 | 42 ± 2 | 2 | 64 (≈ 124 µM) | >1 | 128 (≈ 248 µM) | >16 | 8 (≈ 15.5 µM) | >16 | 8 (≈ 15.5 µM) | >32 | 4 (≈ 7.75 µM) | >16 | Cc1cc(S(=O)(=O)NC(=O)CCC2CCCCC2)c(SCc2cccc3ccccc23)cc1Cl [Compound 11, N-[4-Chloro-5-methyl-2-(naphthalen-1-ylmethylthio)benzenesulfonyl]-3-cyclohexylpropanamide] | 42 µg/mL and 81 µM | 128 (≈ 248 µM) | > 128 | > 128 | > 128 | > 128 | MBC [6, 11]: > 128 µg/mL; MIC [7]: 8 µg/mL (≈ 15.5 µM); MBC/MIC [8]: >1; MBC [8]: > 128 µg/mL; MIC [8]: 128 µg/mL (≈ 248 µM); MBC/MIC [9]: >1; MBC [9]: > 128 µg/mL; MIC [9]: > 128 µg/mL |
| 65 ± 3 | 78 ± 2 | 90 ± 4 | 2 | 64 (≈ 120 µM) | >1 | 128 (≈ 240 µM) | >16 | 8 (≈ 15 µM) | >16 | 8 (≈ 15 µM) | 2 | 4 (≈ 7.49 µM) | >32 | Cc1cc(S(=O)(=O)NC(=O)CCC2CCCCC2)c(SCc2ccc(C(F)(F)F)cc2)cc1Cl [Compound 9, N-[4-Chloro-5-methyl-2-(4-trifluoromethylbenzylthio)benzenesulfonyl]-3-cyclohexylpropanamide] | 40 µg/mL and 74 µM | 128 (≈ 240 µM) | > 128 | > 128 | > 128 | > 128 | MBC ([6]; S. epidermidis PCM 2118): 8 µg/mL (≈ 15 µM); MBC [6, 11]: 4 to 16 µg/mL (≈ 7.49 to 30 µM); MIC [7]: 4 µg/mL (≈ 7.49 µM); MBC/MIC [8]: >1; MBC [8]: > 128 µg/mL; MIC [8]: 128 µg/mL (≈ 240 µM); MBC/MIC [9]: >2; MBC [9]: > 128 µg/mL; MIC [9]: 64 µg/mL (≈ 120 µM) |

— paper PMC6981581, “N-(2-Arylmethylthio-4-Chloro-5-Methylbenzenesulfonyl)amide Derivatives as Potential Antimicrobial Agents—Synthesis and Biological Studies” (International Journal of Molecular Sciences, 2019)
